Reference: patent US20230174571A1, “METHOD OF TREATING SHIP1-MEDIATED DISEASES USING PELOROL DERIVATIVES” (Zebrapeutics Inc., priority 2020, published 2023)

Legend:
[1] = molecular target: T1, SHIP1 (Homo sapiens, UniProt Q92835); settings: Stenton et al., 2013b; cited from earlier work
T1 sequence (Q92835 1-1189): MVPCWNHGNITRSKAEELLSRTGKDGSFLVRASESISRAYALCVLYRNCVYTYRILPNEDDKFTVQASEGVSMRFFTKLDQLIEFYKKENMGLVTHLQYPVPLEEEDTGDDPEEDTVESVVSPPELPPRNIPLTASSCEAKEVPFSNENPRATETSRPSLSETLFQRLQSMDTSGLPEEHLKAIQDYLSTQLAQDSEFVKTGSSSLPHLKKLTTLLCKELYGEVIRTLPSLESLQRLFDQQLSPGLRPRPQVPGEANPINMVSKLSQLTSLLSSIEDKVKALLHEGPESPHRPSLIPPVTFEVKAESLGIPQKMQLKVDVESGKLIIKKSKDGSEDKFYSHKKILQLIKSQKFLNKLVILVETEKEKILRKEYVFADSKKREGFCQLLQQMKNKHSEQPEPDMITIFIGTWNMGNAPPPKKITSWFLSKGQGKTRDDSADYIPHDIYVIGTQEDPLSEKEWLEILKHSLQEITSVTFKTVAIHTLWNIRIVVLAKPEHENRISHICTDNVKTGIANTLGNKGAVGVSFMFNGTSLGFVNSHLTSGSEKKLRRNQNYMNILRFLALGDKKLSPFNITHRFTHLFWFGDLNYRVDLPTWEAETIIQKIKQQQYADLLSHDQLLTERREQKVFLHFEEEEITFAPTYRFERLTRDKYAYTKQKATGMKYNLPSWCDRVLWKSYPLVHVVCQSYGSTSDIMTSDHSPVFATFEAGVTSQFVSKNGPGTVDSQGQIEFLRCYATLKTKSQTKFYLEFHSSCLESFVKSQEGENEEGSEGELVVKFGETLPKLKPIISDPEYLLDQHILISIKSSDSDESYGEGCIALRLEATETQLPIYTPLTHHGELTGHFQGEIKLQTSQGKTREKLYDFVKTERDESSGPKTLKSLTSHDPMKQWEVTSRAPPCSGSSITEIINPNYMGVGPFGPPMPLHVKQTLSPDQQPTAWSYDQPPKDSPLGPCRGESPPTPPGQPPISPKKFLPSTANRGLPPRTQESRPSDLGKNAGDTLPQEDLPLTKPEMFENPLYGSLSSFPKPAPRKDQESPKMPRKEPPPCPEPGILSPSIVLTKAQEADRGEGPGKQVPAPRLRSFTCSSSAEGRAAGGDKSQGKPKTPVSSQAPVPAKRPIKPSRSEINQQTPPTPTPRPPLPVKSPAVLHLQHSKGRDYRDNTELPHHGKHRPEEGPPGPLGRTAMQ

[2] = molecular target: T2, PAC2 WT (Mus musculus, UniProt Q9ES52); test: Biolayer interferometry, wild-type PAC2; type: binding; settings: 20 μM analyte; compared to compound I-2 or PI(3,4)P2
T2 construct: PAC1 and PAC2 consists of phosphatase and C2 domain (residues aa 402-861 and aa 402-857 respectively); made in house; host or cells: E. coli BL21 co-transformed with pBirAcm
T2 sequence (Q9ES52 402-857): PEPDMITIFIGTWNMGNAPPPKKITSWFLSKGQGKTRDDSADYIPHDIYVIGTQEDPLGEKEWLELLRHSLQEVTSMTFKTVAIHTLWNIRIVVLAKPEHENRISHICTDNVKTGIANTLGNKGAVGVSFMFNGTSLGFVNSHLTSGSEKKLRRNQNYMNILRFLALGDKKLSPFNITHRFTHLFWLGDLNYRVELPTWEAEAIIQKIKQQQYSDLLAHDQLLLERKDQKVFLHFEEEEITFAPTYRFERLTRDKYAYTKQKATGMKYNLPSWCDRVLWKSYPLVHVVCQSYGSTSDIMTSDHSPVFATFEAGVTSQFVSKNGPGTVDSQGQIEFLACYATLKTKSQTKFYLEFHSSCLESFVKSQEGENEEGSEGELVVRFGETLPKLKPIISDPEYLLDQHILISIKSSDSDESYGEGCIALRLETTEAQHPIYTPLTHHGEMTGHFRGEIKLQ
Protocol: Expression of PAC2-Avi tag for Biolayer interferometry. A sequence corresponding to Avi-tag ([…]) was added to the c-terminal end of the PAC2 in LIC-HMT-PAC2 expressing vector via standard restriction digestion and ligation. The LIC-HMT-PAC2-Avi expressing vector was then co-transformed into E. coli BL21 cells with pBirAcm expression vector in 1:1 molar ratio. Overnight culture was inoculated with a 250-fold dilution to start the actual culture. The cells were grown at 37° C. in LB medium (supplemented with 50 μg/mL of kanamycin and 10 μg/mL of chloramphenicol) with shaking speed of 225 rpm. When OD600 reached about 0.6, 5 mM of biotin in bicine buffer pH 8.3 was added to the culture to have final concentration of 125 μM of biotin. The culture was then cooled down to room temperature before the addition of 0.4 mM isopropyl-B-D-1-thiogalactopyranoside (IPTG) to induce the expression of the recombinant protein with Avi-tag. The rest of the method is identical as written in “Expression of PAC2 for crystallography”.
Biolayer interferometry. […] The association was measured for 600 s at an analyte concentration of 20 μM followed by dissociation for 300 s in the same buffer as the baseline. The raw data was analyzed using the Octet Red Data Analysis software (ver. 8.2). […]

[3] = molecular target: T1, SHIP1; settings: scintillation proximity assay, Stenton et al; cited from earlier work

For `C=C1CC[C@H]2[C@H](CN)[C@@H]([C@@]3(C)CC[C@H](O)C[C@@H]3CO)CC[C@]12C` [AQX-1125/Rosiptor], the “SHIP1 phosphatase enhancing activity” value [1] is listed as “marginal”, the “binding to SHIP1 (PAC2 WT) in BLI assay” value [2] is listed as “binds very poorly” and the “signal of tritiated compound binding to SHIP1 protein” value [3] is listed as ~300 cpm.
